Measurements as given in patent publication US20100316529A1, “Anti-Microbial Systems and Methods” (priority 2001, published 2010).
Where “and” joins values, the source holds several entries; their conditions need not be identical. Equal values may be shown once.

Tests used:
Assay type in all cases: cell-based
E. coli = assay: EDTA salt dilution test, MIC/MBC; conditions: three entries
Ent. faecalis = assay: EDTA salt dilution test, MIC/MBC
Kleb. pnemoniae = assay: EDTA salt dilution test, MIC/MBC; conditions: two entries
MRSA = assay: EDTA salt dilution test, MIC/MBC; conditions: five entries
Proteus mirabilis = assay: EDTA salt dilution test, MIC/MBC; conditions: two entries
Pseudomonas aeruginosa = assay: EDTA salt dilution test, MIC/MBC; conditions: two entries
Pseudomonas sp. = assay: EDTA salt dilution test, MIC/MBC
S. aureus = assay: EDTA salt dilution test, MIC/MBC; conditions: five entries
S. capitis = assay: EDTA salt dilution test, MIC/MBC; conditions: two entries
S. epidermidis = assay: EDTA salt dilution test, MIC/MBC; conditions: two entries
S. lentus = assay: EDTA salt dilution test, MIC/MBC
S. simulans = assay: EDTA salt dilution test, MIC/MBC
S. xylosus = assay: EDTA salt dilution test, MIC/MBC
VRE = assay: EDTA salt dilution test, MIC/MBC; conditions: two entries
Ent. faeculm = assay: EDTA salt dilution test, MIC/MBC
Kleb. oxytoca = assay: EDTA salt dilution test, MIC/MBC
Kleb. ornitholytica = assay: EDTA salt dilution test, MIC/MBC
Ent. cloacae = assay: EDTA salt dilution test, MIC/MBC; conditions: three entries
Steno. maltophilia = assay: EDTA salt dilution test, MIC/MBC
Cornyeform amycolatum = assay: EDTA salt dilution test, MIC/MBC
Coryneform strait/amy = assay: EDTA salt dilution test, MIC/MBC
Acinetobacter baumanii = assay: EDTA salt dilution test, MIC/MBC; conditions: two entries, Exhibit A2
Proteus vulgaris = assay: EDTA salt dilution test, MIC/MBC
C. lucitaniae = assay: EDTA agar dilution method, yeasts, MIC/MBC; conditions: Exhibit C
From the text: (§1) Protocol 3: Agar dilutions.
Do this until all the media is used up.

C. albicans = assay: EDTA agar dilution method, yeasts, MIC/MBC; conditions: three entries, Exhibit C
Description: (§2) The bactericidal effects were measured as the Minimum Bactericidal Concentration (MBC), while the inhibitory effects were measured as the Minimum Inhibitory Concentration (MIC). In each case, the concentration was measured as milligrams of the disinfectant salt per milliliter of water (mg/ml).
as §1
(§3) Prepare nutrient agar plates with increasing concentrations of EDTA, 0, 0.5, 1, 1.5, 2, 4, 6, 8, 10, 15, 20, 25, 30 mg/mL, using the following method. • Pour 300 mL distilled water into a sterile glass bottle. • Add the appropriate amount of EDTA. This is the concentration desired ×300, in grams. • Once the EDTA has fully dissolved, add 8.4 g of Nutrient agar powder (Oxoid). Mix thoroughly. • Do this for each concentration of EDTA required. […] Do this until all the media is used up. Label the plates with the concentration of EDTA they contain. • These plates can then be stored, until they are needed, in a 4° C. fridge. • Use an automatic plate inoculator to inoculate each plate with 21 organisms.

C. glabrata = assay: EDTA agar dilution method, yeasts, MIC/MBC; conditions: two entries, Exhibit C
Description: as §2, §1, §3

C. guilliermondii = assay: EDTA agar dilution method, yeasts, MIC/MBC; conditions: Exhibit C
Description: as §2, §1, §3

C. parapsilosis = assay: EDTA agar dilution method, yeasts, MIC/MBC; conditions: Exhibit C
Description: as §2, §1, §3

C. tropicalis = assay: EDTA agar dilution method, yeasts, MIC/MBC; conditions: Exhibit C
Description: as §2, §1, §3

variety of microbes = assay: Efficacy of disinfectant salts of EDTA against a number of microbes; conditions: general statement
Description: The Applicant has tested the efficacy of a number of disinfectant salts of EDTA against a number of microbes.
Protocol one: Broth dilutions:
Inoculate a 25 ml nutrient broth (Oxoid No2) in a sterile universal container with one of the following organisms; Pseudomonas aeruginosa, Proteus Mirabilis, E. coli, Klebsiella pneumoniae, Staph aureus, Coagulase negative staphylococci, Enterococcus faecalis or MRSA.
Incubate the broth at 37° C. overnight.
Next day make up a series of nutrient broths containing a dilution of the appropriate EDTA as in the following list; 0 mg/mL, 0.25 mg/mL, 0.5 mg/mL, 1.0 mg/mL, 1.5 mg/mL, 2.0 mg/mL, 4.0 mg/mL, 6.0 mg/mL, 8.0 mg/mL, 10 mg/mL, 15 mg/mL, 20 mg/mL, 25 mg/mL, 30 mg/ml, 40 mg/mL, 50 mg/mL, 60 mg/mL, 70 mg/mL, 80 mg/mL, 90 mg/mL, 100 mg/mL.
To make these concentrations put the EDTA needed for 10 mLs in only 9 mLs of broth in sterile universal containers, as this will be diluted further when the organisms are added.
Dilute the overnight broth cultures to 10^7 organisms/mL using more sterile nutrient broth.
Add 1 mL of this diluent to each of the EDTA series broths. This gives a final concentration of 10^6 organism/mL in the EDTA broths.
Incubate for 18 hours at 37° C.
Next day visually read the MIC's by observing the turbidity of the broths. […]
Next day read the MBC's by performing colony counts.

In the case of `O=C([O-])CN(CCN(CC(=O)O)CC(=O)O)CC(=O)[O-].[K+].[K+]` [Dipotassium EDTA], the “MBC, minimum concentration required to kill an entire population” value (“MBC, minimum concentration required” for short) (E. coli; Exhibit A1) is reported as >15000 µg/mL and 15000 µg/mL, the “MIC, minimum concentration required to inhibit growth” value (“MIC … to inhibit growth” below) (E. coli; Exhibit A2) is reported as 1000 µg/mL and the “MBC, minimum concentration required” value (Ent. faecalis; Exhibit A1) is reported as 15000 µg/mL. The “MIC … to inhibit growth” value (Ent. faecalis; Exhibit A2) was 1000 µg/mL, the “MBC, minimum concentration required” value (Kleb. pnemoniae; Exhibit A1) was 15000 µg/mL and the “MIC … to inhibit growth” value (Kleb. pnemoniae; Exhibit A2) was 1500 µg/mL and 1000 µg/mL. The “MBC, minimum concentration required” value (MRSA; Exhibit A1) was 6000 µg/mL and 10000 µg/mL and 8000 µg/mL, the “MIC … to inhibit growth” value (MRSA; Exhibit A2) was 1000 µg/mL and the “MBC, minimum concentration required” value (Proteus mirabilis; Exhibit A1) was >15000 µg/mL and 15000 µg/mL. The “MIC … to inhibit growth” value (Proteus mirabilis; Exhibit A2) was less than 500 µg/mL, the “MBC, minimum concentration required” value (Pseudomonas aeruginosa; Exhibit A1) was greater than 15000 µg/mL and the “MIC … to inhibit growth” value (Pseudomonas aeruginosa; Exhibit A2) was 1000 µg/mL. For the same compound, the “MBC, minimum concentration required” value (Pseudomonas sp.; Exhibit A1) was 15000 µg/mL, the “MIC … to inhibit growth” value (Pseudomonas sp.; Exhibit A2) was 1000 µg/mL and the “MBC, minimum concentration required” value (S. aureus; Exhibit A1) was 6000 µg/mL and 8000 µg/mL. The “MIC … to inhibit growth” value (S. aureus; Exhibit A2) was 1000 µg/mL, the “MBC, minimum concentration required” value (S. capitis; Exhibit A1) was 8000 µg/mL and 10000 µg/mL and the “MIC … to inhibit growth” value (S. capitis; Exhibit A2) was less than 500 µg/mL. For the same compound, the “MBC, minimum concentration required” value (S. epidermidis; Exhibit A1) was 8000 µg/mL, the “MIC … to inhibit growth” value (S. epidermidis; Exhibit A2) was less than 500 µg/mL and the “MBC, minimum concentration required” value (S. lentus; Exhibit A1) was 10000 µg/mL. For the same compound, the “MIC … to inhibit growth” value (S. lentus; Exhibit A2) was less than 500 µg/mL, the “MBC, minimum concentration required” value (S. simulans; Exhibit A1) was 8000 µg/mL and the “MIC … to inhibit growth” value (S. simulans; Exhibit A2) was less than 500 µg/mL. The “MBC, minimum concentration required” value (S. xylosus; Exhibit A1) was 6000 µg/mL, the “MIC … to inhibit growth” value (S. xylosus; Exhibit A2) was less than 500 µg/mL and the “MBC, minimum concentration required” value (VRE; Exhibit A1) was 8000 µg/mL. The “MIC … to inhibit growth” value (VRE; Exhibit A2) was <500 µg/mL and 1000 µg/mL, the “MIC … to inhibit growth” value (Ent. faeculm; Ent. faecuim, Exhibit A2) was less than 500 µg/mL and the “MBC, minimum concentration required” value (Ent. faeculm; Ent. faeculm, Exhibit A1) was 8000 µg/mL. For the same compound, the “MBC, minimum concentration required” value (Kleb. oxytoca; Exhibit A1) was 15000 µg/mL, the “MIC … to inhibit growth” value (Kleb. oxytoca; Exhibit A2) was 1000 µg/mL and the “MBC, minimum concentration required” value (Kleb. ornitholytica; Exhibit A1) was greater than 15000 µg/mL. For the same compound, the “MIC … to inhibit growth” value (Kleb. ornitholytica; Exhibit A2) was 1000 µg/mL, the “MBC, minimum concentration required” value (Ent. cloacae; Exhibit A1) was 15000 µg/mL and >15000 µg/mL and the “MIC … to inhibit growth” value (Ent. cloacae; Exhibit A2) was 4000 µg/mL and 6000 µg/mL. The “MBC, minimum concentration required” value (Steno. maltophilia; Exhibit A1) was 10000 µg/mL, the “MIC … to inhibit growth” value (Steno. maltophilia; Exhibit A2) was less than 500 µg/mL and the “MBC, minimum concentration required” value (Cornyeform amycolatum; Exhibit A1) was less than 500 µg/mL. The “MIC … to inhibit growth” value (Cornyeform amycolatum; Exhibit A2) was less than 500 µg/mL, the “MBC, minimum concentration required” value (Coryneform strait/amy; Exhibit A1) was less than 500 µg/mL and the “MIC … to inhibit growth” value (Coryneform strait/amy; Exhibit A2) was less than 500 µg/mL. The “MIC … to inhibit growth” value (Acinetobacter baumanii) was less than 500 µg/mL, the “MBC, minimum concentration required” value (Proteus vulgaris; Exhibit A1) was greater than 15000 µg/mL and the “MIC … to inhibit growth” value (Proteus vulgaris; Exhibit A2) was 1000 µg/mL. For the same compound, the “MIC's, Minimum Inhibitory Concentration” value (C. lucitaniae) was 500 µg/mL, the “MIC's, Minimum Inhibitory Concentration” value (C. albicans) was 500 µg/mL and the “MIC's, Minimum Inhibitory Concentration” value (C. glabrata) was 500 µg/mL. The “MIC's, Minimum Inhibitory Concentration” value (C. guilliermondii) was 500 µg/mL, the “MIC's, Minimum Inhibitory Concentration” value (C. parapsilosis) was 500 µg/mL and the “MIC's, Minimum Inhibitory Concentration” value (C. tropicalis) was 1000 µg/mL. The “anti-microbial (antifungal and antibacterial) properties compared with the disodium salt” value (variety of microbes) was “superior to disodium EDTA”.
